Measurements from ChEMBL document CHEMBL3885861, “Open TG-GATES”.

Organism: Rattus norvegicus
Assay: Open TG-GATES - Regimen: Daily Repeat
Format: toxicity, organism-based, Sprague-Dawley
Design: regimen Daily Repeat, gender Male, age 6 weeks
Conditions: in vivo, po, 0 mg/kg, route gavage, dose level Control; for APTT / Bas / Eos / Fbg / Hb / Ht / Lym / MCH / MCHC / MCV / Mono / Neu / PT / Plat / RBC / Ret / WBC: tissue Blood; for KIDNEY_L / KIDNEY_R / KIDNEY_TOTAL: tissue Kidney; for LIVER: tissue Liver; for A/G / ALP / ALT / AST / BUN / CRE / Ca / Cl / DBIL / GLC / IP / K / LDH / Na / PL / RALB / TBIL / TC / TG / TP / gamma-GTP: tissue Plasma

CC(=N)S [THIOACETAMIDE]
TERMINAL_BW (72 h, time 3 day): 229.8 g | APTT (72 h, time 3 day): 17 s | Bas (72 h, time 3 day): 0% | Eos (72 h, time 3 day): 1% | Fbg (72 h, time 3 day): 232.2 mg/dL | Hb (72 h, time 3 day): 13.8 g/dL | Ht (72 h, time 3 day): 42.6% | Lym (72 h, time 3 day): 74.8% | MCH (72 h, time 3 day): 21.2 pg | MCHC (72 h, time 3 day): 32.5% | MCV (72 h, time 3 day): 65.3 fL | Mono (72 h, time 3 day): 8% | Neu (72 h, time 3 day): 16.4% | PT (72 h, time 3 day): 11.5 s | Plat (72 h, time 3 day): 111.4 x10_4/uL | RBC (72 h, time 3 day): 652.8 x10_4/ul | Ret (72 h, time 3 day): 7% | WBC (72 h, time 3 day): 125.1 x10_2/uL | KIDNEY_L (72 h, time 3 day): 1 g | KIDNEY_R (72 h, time 3 day): 1 g | KIDNEY_TOTAL (72 h, time 3 day): 2 g | LIVER (72 h, time 3 day): 10.7 g | A/G (72 h, time 3 day): 2.1 | ALP (72 h, time 3 day): 1014.4 IU/L | ALT (72 h, time 3 day): 31 IU/L | AST (72 h, time 3 day): 62.2 IU/L | BUN (72 h, time 3 day): 17 mg/dL | CRE (72 h, time 3 day): 0.6 mg/dL | Ca (72 h, time 3 day): 10.4 mg/dL | Cl (72 h, time 3 day): 104.2 meq/L | DBIL (72 h, time 3 day): 0.018 mg/dL | GLC (72 h, time 3 day): 196.6 mg/dL | IP (72 h, time 3 day): 7.6 mg/dL | K (72 h, time 3 day): 4.9 meq/L | LDH (72 h, time 3 day): 88 IU/L | Na (72 h, time 3 day): 137.6 meq/L | PL (72 h, time 3 day): 157.4 mg/dL | RALB (72 h, time 3 day): 4 g/dL | TBIL (72 h, time 3 day): 0.4 mg/dL | TC (72 h, time 3 day): 80.4 mg/dL | TG (72 h, time 3 day): 106.6 mg/dL | TP (72 h, time 3 day): 5.8 g/dL | gamma-GTP (72 h, time 3 day): 1 IU/L | TERMINAL_BW ([…], time 7 day): 254.8 g | TERMINAL_BW ([…], time 14 day): 312.2 g | TERMINAL_BW ([…], time 28 day): 377.5 g | APTT ([…], time 7 day): 17.3 s | Bas ([…], time 7 day): 0% | Eos ([…], time 7 day): 1% | Fbg ([…], time 7 day): 226.2 mg/dL | Hb ([…], time 7 day): 13.8 g/dL | Ht ([…], time 7 day): 41.8% | Lym ([…], time 7 day): 83.6% | MCH ([…], time 7 day): 20.8 pg | MCHC ([…], time 7 day): 33% | MCV ([…], time 7 day): 63.1 fL | Mono ([…], time 7 day): 4.4% | Neu ([…], time 7 day): 10.8% | PT ([…], time 7 day): 11.8 s | Plat ([…], time 7 day): 111.5 x10_4/uL | RBC ([…], time 7 day): 661.6 x10_4/ul | Ret ([…], time 7 day): 5.3% | WBC ([…], time 7 day): 145.6 x10_2/uL | APTT ([…], time 14 day): 17.4 s | Bas ([…], time 14 day): 0% | Eos ([…], time 14 day): 0.8% | Fbg ([…], time 14 day): 223.8 mg/dL | Hb ([…], time 14 day): 14.6 g/dL | Ht ([…], time 14 day): 44.1% | Lym ([…], time 14 day): 81% | MCH ([…], time 14 day): 20.2 pg | MCHC ([…], time 14 day): 33.1% | MCV ([…], time 14 day): 61.1 fL | Mono ([…], time 14 day): 5.8% | Neu ([…], time 14 day): 12.6% | PT ([…], time 14 day): 11.8 s | Plat ([…], time 14 day): 101.4 x10_4/uL | RBC ([…], time 14 day): 722.8 x10_4/ul | Ret ([…], time 14 day): 4.5% | WBC ([…], time 14 day): 145.6 x10_2/uL | APTT ([…], time 28 day): 17.5 s | Bas ([…], time 28 day): 0% | Eos ([…], time 28 day): 1% | Fbg ([…], time 28 day): 248.6 mg/dL | Hb ([…], time 28 day): 15.9 g/dL | Ht ([…], time 28 day): 46.8% | Lym ([…], time 28 day): 86.2% | MCH ([…], time 28 day): 19.7 pg | MCHC ([…], time 28 day): 33.9% | MCV ([…], time 28 day): 58 fL | Mono ([…], time 28 day): 4% | Neu ([…], time 28 day): 9.2% | PT ([…], time 28 day): 10.8 s | Plat ([…], time 28 day): 104.1 x10_4/uL | RBC ([…], time 28 day): 807.6 x10_4/ul | Ret ([…], time 28 day): 2.8% | WBC ([…], time 28 day): 194 x10_2/uL | KIDNEY_L ([…], time 7 day): 1.1 g | KIDNEY_R ([…], time 7 day): 1.1 g | KIDNEY_TOTAL ([…], time 7 day): 2.1 g | KIDNEY_L ([…], time 14 day): 1.2 g | KIDNEY_R ([…], time 14 day): 1.2 g | KIDNEY_TOTAL ([…], time 14 day): 2.3 g | KIDNEY_L ([…], time 28 day): 1.4 g | KIDNEY_R ([…], time 28 day): 1.4 g | KIDNEY_TOTAL ([…], time 28 day): 2.7 g | LIVER ([…], time 7 day): 11.8 g | LIVER ([…], time 14 day): 13.8 g | LIVER ([…], time 28 day): 15.2 g | A/G ([…], time 7 day): 1.8 | ALP ([…], time 7 day): 868.8 IU/L | ALT ([…], time 7 day): 27.4 IU/L | AST ([…], time 7 day): 56.8 IU/L | BUN ([…], time 7 day): 19.4 mg/dL | CRE ([…], time 7 day): 0.6 mg/dL | Ca ([…], time 7 day): 10.3 mg/dL | Cl ([…], time 7 day): 104.4 meq/L | DBIL ([…], time 7 day): 0.016 mg/dL | GLC ([…], time 7 day): 190.2 mg/dL | IP ([…], time 7 day): 7.1 mg/dL | K ([…], time 7 day): 5.2 meq/L | LDH ([…], time 7 day): 79 IU/L | Na ([…], time 7 day): 136.2 meq/L | PL ([…], time 7 day): 154.6 mg/dL | RALB ([…], time 7 day): 3.9 g/dL | TBIL ([…], time 7 day): 0.3 mg/dL | TC ([…], time 7 day): 75 mg/dL | TG ([…], time 7 day): 145.8 mg/dL | TP ([…], time 7 day): 6.1 g/dL | gamma-GTP ([…], time 7 day): 1 IU/L | A/G ([…], time 14 day): 2 | ALP ([…], time 14 day): 716 IU/L | ALT ([…], time 14 day): 32.2 IU/L | AST ([…], time 14 day): 64.8 IU/L | BUN ([…], time 14 day): 18.6 mg/dL | CRE ([…], time 14 day): 0.6 mg/dL | Ca ([…], time 14 day): 10.1 mg/dL | Cl ([…], time 14 day): 103 meq/L | DBIL ([…], time 14 day): 0.002 mg/dL | GLC ([…], time 14 day): 181.6 mg/dL | IP ([…], time 14 day): 7.1 mg/dL | K ([…], time 14 day): 4.7 meq/L | LDH ([…], time 14 day): 76 IU/L | Na ([…], time 14 day): 134.8 meq/L | PL ([…], time 14 day): 169 mg/dL | RALB ([…], time 14 day): 4.1 g/dL | TBIL ([…], time 14 day): 0.3 mg/dL | TC ([…], time 14 day): 81.6 mg/dL | TG ([…], time 14 day): 158.6 mg/dL | TP ([…], time 14 day): 6.1 g/dL | gamma-GTP ([…], time 14 day): 1.4 IU/L | A/G ([…], time 28 day): 1.9 | ALP ([…], time 28 day): 629 IU/L | ALT ([…], time 28 day): 29.4 IU/L | AST ([…], time 28 day): 63 IU/L | BUN ([…], time 28 day): 18.8 mg/dL | CRE ([…], time 28 day): 0.6 mg/dL | Ca ([…], time 28 day): 10.1 mg/dL | Cl ([…], time 28 day): 103 meq/L | DBIL ([…], time 28 day): 0 mg/dL | GLC ([…], time 28 day): 179.4 mg/dL | IP ([…], time 28 day): 6.8 mg/dL | K ([…], time 28 day): 4.5 meq/L | LDH ([…], time 28 day): 96.4 IU/L | Na ([…], time 28 day): 135.4 meq/L | PL ([…], time 28 day): 172.8 mg/dL | RALB ([…], time 28 day): 4.1 g/dL | TBIL ([…], time 28 day): 0.2 mg/dL | TC ([…], time 28 day): 83 mg/dL | TG ([…], time 28 day): 174.6 mg/dL | TP ([…], time 28 day): 6.3 g/dL | gamma-GTP ([…], time 28 day): 1.2 IU/L
